Data reported in US20080114066A1, “Synergistic Effects Of Docosahexaenoic Acid (DHA) And Carotenoid Absorption Of Cognitive Function” (Trustees of Tufts College, priority 2005, published 2008).

What was measured:
Assay type in all cases: in vivo, human
[1] = tested on: non-smoking women (60-80 years); test: Digit Span Forward and Backward; conditions: group mean
Text: (§1) Subjects: Fifty non-smoking women (60-80 years) were recruited from the general population for a 4 month supplementation study. All subjects underwent a screening examination that includes a medical history, a physical examination, and a routine blood clinical chemistry profile. Volunteers with any history or biochemical evidence of lactose intolerance, liver, kidney, or pancreatic disease, anemia, active bowel disease or resection, insulin-dependent diabetes, easy bruising or bleeding, bleeding disorders, hyperglyceridemia, hyperlipidproteinemia, or alcoholism were excluded from the study. Moreover, individuals taking mineral oil or medications suspected of interfering with fat-soluble vitamin absorption were excluded. Subjects using steroids or non-steroid anti-inflammatory drugs, or antihistamine drugs were excluded. […] Subjects were excluded if they have taken any nutrient supplement for 2 months or more before admission into the study or carotene supplements 6 months or more before the study. Smoking was not permitted during the course of the study.
(§2) Women were randomly assigned to one of four groups: Control (n=10), DHA (n=14, DHA 800 mg/d), lutein (n=12, lutein 12 mg/d), and lutein+DHA (n=14, lutein 12 mg/d; DHA 800 mg/d) (C, D, L, and LD, respectively). The supplement type was randomized. Subjects visited the Jean Mayer USDA Human Nutrition Research Center on Aging at Tufts University on days that supplements were distributed and blood obtained (0 mo-baseline, 2 mo, and 4 mo). Subjects were instructed to take the supplement with a nutritional energy drink (8 oz., Boost®, Mead Johnson Nutritionals) but were otherwise asked to not alter their diets. The diet of each subject was monitored with food frequency questionnaires (Block G, et al., A data-based approach to diet questionnaire design and testing. Am J Epidemiol, 1986. 24: p. 453-469) completed at baseline, 2 months and 4 months to be sure that there were no confounding changes in dietary intake. All subjects completed at least two sets of cognitive and mood self-report tests, at the beginning of the study, then at the end of the study, after four months of supplementation, at the Schepens Eye Research Institute. Compliance was by monitored by interview, compliance calendars and capsule count. Both the subjects and the experimenter were masked to the experimental groups. Blood samples were collected at baseline, 2 months and 4 months, and serum was separated from red blood cells (800×g, 10 minutes). Aliquots of serum are stored at −70° C. until analyzed. At baseline and 2 months, a two month supply of placebo supplements, DHA (800 mg/d, DHASCO, Martek Biological Sciences), lutein (12 mg/d plus 0.5 mg zeaxanthin, Kemin Foods), or lutein+DHA (12 mg/d and 800 mg/d, respectively and nutritional energy drink was provided. At baseline and 4 months, subjects visited the Schepens Eye Research Institute (Boston, Mass.) for testing of MP optical density (MPOD) and an ophthalmic exam. There were two visits at each time point.
(§3) Supplementation Protocol. Dietary supplements in capsule form were Lutein (12 mg/day) (Kemin Foods) and Docosahexaenoic Acid (DHASCO) (800 mg/day) (Martek Biological Sciences). Participants in each of the four supplementation groups were instructed to drink one can of a nutritional supplement daily (Boost Plus) (Mead Johnson) when taking their capsules. Subjects ingested their dietary supplements daily for a period of 4 months. Both the subjects and the experimenter were masked to the experimental groups.
(§4) Tests and Measurements. The battery of cognitive tests included tests of memory and processing speed or attention and a measure of self-reported mood. […] Early cognitive markers of the incidence of dementia and mortality: A longitudinal population-based study of the oldest old. International Journal of Geriatric Psychiatry, 12, 53-59; Payton, M., Riggs, K. M., Spiro III, A., Weiss, S. T. & Hu, H. (1998). […]

[2] = tested on: non-smoking women (60-80 years); test: NES2 Mood Scales (self-reported mood); set-up: scale not given here; conditions: group mean
Text: as §1, §2, §3, §4

[3] = tested on: macular pigment; test: Macular pigment optical density (MPOD), psychophysical method; conditions: for Mean increase in total MPOD (change from baseline): 4 months of supplementation, area under the curve of 5 loci, mean ± se
Procedure: as §2
The method of assessing MPOD involves a three-channel Maxwellian view optical system and used a psycho physical method described by Hammond et al. (Hammond B. R., et al., Vision Res, 1996. 36: p. 2001-2012). […] MPOD was measured in two baseline sessions on separate days and in two sessions on separate days at the end of 4 months of supplementation.
Differences between cognitive and mood scores at baseline and after supplementation were tested by Student's t test for each treatment group. In the case of those variables where a significant change was found from baseline to end of study, correlations were calculated between age, education, serum levels of DHA and lutein, and test scores, for those test scores where the distribution was normal or near-normal. […]

[4] = Serum carotenoids (lutein, zeaxanthin) by HPLC; conditions: after 2 and 4 months of supplementation
Procedure: (§5) Women were randomly assigned to one of four groups: Control (n=10), DHA (n=14, DHA 800 mg/d), lutein (n=12, lutein 12 mg/d), and lutein+DHA (n=14, lutein 12 mg/d; DHA 800 mg/d) (C, D, L, and LD, respectively). The supplement type was randomized. Subjects visited the Jean Mayer USDA Human Nutrition Research Center on Aging at Tufts University on days that supplements were distributed and blood obtained (0 mo-baseline, 2 mo, and 4 mo). Subjects were instructed to take the supplement with a nutritional energy drink (8 oz., Boost®, Mead Johnson Nutritionals) but were otherwise asked to not alter their diets. The diet of each subject was monitored with food frequency questionnaires (Block G, et al., A data-based approach to diet questionnaire design and testing. Am J Epidemiol, 1986. 24: p. 453-469) completed at baseline, 2 months and 4 months to be sure that there were no confounding changes in dietary intake. […] Compliance was by monitored by interview, compliance calendars and capsule count. […] Aliquots of serum are stored at −70° C. until analyzed. […]
(§6) Serum carotenoids were extracted and analyzed by HPLC using the method described by Yeum et al. (Yeum, K. J., et al., Am J Clin Nutr, 1996. 64(4): p. 594-602.). […]
(§7) Results are expressed as mean ±SE. […]

[5] = Serum DHA by gas-liquid chromatography; conditions: after 2 and 4 months of supplementation
Procedure: as §5, §6, §7

[6] = Baseline, before supplementation
[7] = Final, after 4 months of supplementation

SMILES	Backward Digit Span Length [1, 6]	Backward Digit Span Total [1, 6]	Forward Digit Span Length [1, 6]	Forward Digit Span Total [1, 6]	Backward Digit Span Length [1, 7]	Backward Digit Span Total [1, 7]	Forward Digit Span Length [1, 7]	Forward Digit Span Total [1, 7]	Mood Scales Anger [2, 6]	Mood Scales Confusion [2, 6]	Mood Scales Depression [2, 6]	Mood Scales Fatigue [2, 6]	Mood Scales Tension [2, 6]	Mood Scales Anger [2, 7]	Mood Scales Confusion [2, 7]	Mood Scales Depression [2, 7]	Mood Scales Fatigue [2, 7]	Mood Scales Tension [2, 7]	Mean increase in total MPOD (change from baseline) [3]	other results
CC/C=C\C/C=C\C/C=C\C/C=C\C/C=C\C/C=C\CCC(=O)O [DHA, cis-4,7,10,13,16,19-docosahexaenoic acid]	5.4	7.9	6.6	8.4	5.8	8.4	6.7	8.5	1.6	1.7	1.7	2.1	2.0	1.6	1.8	1.7	2.1	2.1	0.037±0.068 OD	Retinal loci with significant increase in MPOD ([3]; 4 month change from baseline, loci 0.4°, 1.5°, 3°, 5°): 0.4°
CC1=C[C@H](O)CC(C)(C)[C@H]1/C=C/C(C)=C/C=C/C(C)=C/C=C/C=C(C)/C=C/C=C(C)/C=C/C1=C(C)C[C@@H](O)CC1(C)C [Lutein, lutein]	5.1	7.5	6.6	8.1	4.7	6.9	7.0	8.7	1.4	1.9	1.5	2.4	2.1	1.5	2.4	1.8	2.9	2.4	0.370±0.140 OD	Serum concentration of lutein, change from baseline [4]: significantly increased; Serum concentration of DHA, change from baseline [5]: No significant changes; Subjects without increase in MPOD (non responders) ([3]; 4 months of lutein supplementation): Two of 14
